Key:
Assay type in all cases: cell-based
Candida albicans = experiment: Adhesion of the yeast Candida albicans to hexadecane; details: for adhesion of C. albicans to hexadecane: 0.16% cetyl pyridinium chloride; for adhesion of the yeast Candida albicans: 20 without
Escherichia coli CSH 57 = experiment: Adhesion of Escherichia coli CSH 57 to hexadecane; details: 0 without
[1] = system: Acinetobacter calcoaceticus MR-481; experiment: Adhesion of Acinetobacter calcoaceticus MR-481 to oil droplets; details: 0 without
[2] = system: Acinetobacter calcoaceticus RAG-1 (ATCC 31012); experiment: Adhesion of RAG-1 to various oils (percent drop in turbidity after vortexing with oil); details: for Percent adhesion to: mineral oil 50 / Percent adhesion to: n-nexadecane / Percent adhesion to: soybean oil: 0.16 ml of 0.5% detergent added, vortexed 2 min
Protocol: In one experiment Acinetobacter calcoaceticus RAG-1 (ATCC 31012) cells were grown overnight with vigorous shaking at 30 C in brain heart infusion broth. The cells were harvested by centrifugation and washed twice in 0.2% saline. The cells were then suspended in 0.2% saline to a corrected optical density of about 15 at 400 nm (1 cm light path). To 1.2 ml of suspended bacteria in 4 ml square disposable polystyrene cuvettes were added the following: 0.16 ml of 0.5% detergent in water (or water for control) and 0.24 ml water. Following brief mixing, 0.2 ml of oil was added (vs. controls with no oil added) and the mixtures vortexed vigorously for 2 min. Following about thirty minutes, the corrected turbidity of the lower aqueous phase was measured at 400 nm. Adhesion is calculated as the percent drop in turbidity following the mixing procedure.
The ability of another cationic surface-active agent, chlorhexidine digluconate, to enhance microbial adhesions to oil droplets is shown in the following experiment. Actnetobacter calcoaceticus RAG-1 (ATCC 31012) cells were grown overnight with vigorous shaking at 30 C in brain heart infusion broth. The cells were harvested, washed by centrifugation, and suspended in 0.2% saline to a corrected optidal density of ca. 18 at […] (1 cm light path). To 1.2 ml of suspended bacteria in 4 ml square disposable polystyrene cuvettes were added the following: 0.16 ml of 0.5% chlorhexidine digluconate in water (or water for control) and 0.24 ml water. To each cuvette 0.2 ml of oil was added (vs. control with no oil added) and the mixtures vortexed vigorously for 2 min. After about thirty minutes, the turbidity of the lower aqueous phase was measured at 400 nm and corrected for non-linearity by a standard curve. Adhesion is calculated as the percent drop in corrected turbidity following the mixing procedure.

[3] = 0.16 ml of 0.5% chlorhexidine digluconate added, 0.2 ml oil

CCCCCCCCCCCCCCCC[n+]1ccccc1 [Cetylpyridinium chloride, cetylpyridinium chloride]
adhesion of C. albicans to hexadecane (Candida albicans; 0.8% NaCl present): 18%
adhesion of C. albicans to hexadecane (Candida albicans; no NaCl): 100%
adhesion of Escherichia coli CSH 57 to hexadecane (Escherichia coli CSH 57; 0.08% cetylpyridinium chloride present): 98%
Adhesion of Acinetobacter calcoaceticus MR-481 ([1]; 0.18% of cetylpyridinium chloride): 97%
Percent adhesion to: mineral oil 50 ([2]; 0.2 ml oil): 80%
Percent adhesion to: n-nexadecane ([2]; 0.2 ml oil): 83%
Percent adhesion to: soybean oil ([2]; 0.2 ml oil): 47%

N=C(NCCCCCCNC(=N)NC(=N)Nc1ccc(Cl)cc1)NC(=N)Nc1ccc(Cl)cc1.O=C(O)[C@H](O)[C@@H](O)[C@H](O)[C@H](O)CO.O=C(O)[C@H](O)[C@@H](O)[C@H](O)[C@H](O)CO [Chlorhexidine digluconate, chlorhexidine digluconate]
adhesion of the yeast Candida albicans (Candida albicans; 0.16% chlorhexidine digluconate): 100%
adhesion of Escherichia coli CSH 57 to hexadecane (Escherichia coli CSH 57; 0.1% chlorhexidine digluconate present): 98%
Percent adhesion to Commerical soybean oil [2, 3]: 89%
Percent adhesion to Sigma soybean oil [2, 3]: 90%
Percent adhesion to isohexadecane [2, 3]: 94%
Percent adhesion to n-hexadecane [2, 3]: 95%

CCCCCCCCCCCCOS(=O)(=O)[O-].[Na+] [Sodium dodecyl sulphate]
Percent adhesion to: mineral oil 50 ([2]; 0.2 ml oil): 0%
Percent adhesion to: n-nexadecane ([2]; 0.2 ml oil): 0%
Percent adhesion to: soybean oil ([2]; 0.2 ml oil): 0%
adhesion to all three test oils ([2]; added at the same concentration as the cetylpyridinium chloride (w/v)): 0%

chitosan
adhesion of the yeast Candida albicans (Candida albicans; 0.025% chitosan): 95%
adhesion of Escherichia coli CSH 57 to hexadecane (Escherichia coli CSH 57; 0.015% chitosan present): 97%
Adhesion of Acinetobacter calcoaceticus MR-481 ([1]; 0.019% of chitosan): 99%

— patent US6465521B1, “Composition for desorbing bacteria” (Ramot University Authority for Applied Research & …, priority 1988, dated 2002)
